Measurements taken from article PMC7212467, “Lipid-Mediated Insertion of Toll-Like Receptor (TLR) Ligands for Facile Immune Cell Engineering” (Frontiers in Immunology, 2020).

Tests used:
purified mouse T cells = experiment: ELISA quantification of depoted lipid conjugates per T cell; type: cell-based; conditions: for ng/mL (equivalent in solution): Table S1, estimated dose on depoted T cells; for # Ligands/T cell: Table S1, quantitation of cell surface TLR2 ligands by ELISA, depoted 10 μg/mL, 1 h; for fold increase in number of depoted molecules per T cell, 0.1 to 10 μg/mL depoting concentration: biotinylated ligand, cell lysate, streptavidin-HRP/TMB absorbance 450 nm, n = 3-4 independent samples
Experimental: (§1) Unless specified otherwise (in Figure 2), splenocytes, isolated B cells, or isolated T cells were incubated with CpG (5 μM), lipid-CpG (5 μM), Pam2CSK4 (10 μg/mL), or Pam3CSK4 (10 μg/mL) for 1 h in complete RPMI 1640 media supplemented with 10% fetal bovine serum. Splenocytes or T cells were then washed 3 times with PBS plus 1% bovine serum albumin to remove unbound ligand.
One million purified T cells were depoted with FAM-labeled lipid-CpG, biotinylated Pam2CSK4, or biotinylated Pam3CSK4 as described above, and then lysed with Glo lysis buffer (Promega) for 10 min at 25°C. Lysates were collected and plated onto Nunc MaxiSorp ELISA plates (Thermo). After 2 h of incubation at 25°C, FAM-labeled lipid-CpG was excited at 488 nm, and fluorescent emission at 520 nm was quantified by a microplate fluorescence reader. For Pam2CSK4 and Pam3CSK4 samples, horseradish peroxidase (HRP)-labeled streptavidin was added for 2 h incubation at 25°C, and then TMB substrate (Thermo) was added to observe changes in absorbance at 450 nm with a microplate spectrophotometer (BioTek).

[1] = tested on: bystander B cells (TLR2+ APCs); experiment: Bystander B-cell activation by TLR2 ligand-depoted T cells; type: cell-based, mouse; conditions: for CD69 upregulation on B cells (fold MFI) / MHC II upregulation on B cells (fold MFI): T cells depoted 10 μg/mL 1 h, co-culture with B cells 2 days, MFI normalized to unstimulated B cells, n = 5-6 independent experiments; for CD69 expression, depoted vs same dose of soluble ligand / MHC II expression, depoted vs same dose of soluble ligand: soluble dose 10 ng/mL Pam2CSK4, 2 ng/mL Pam3CSK4; for B-cell activation by dose-matched soluble ligand: 10 ng/mL Pam2CSK4, 2 ng/mL Pam3CSK4
Experimental: as §1
Naïve or primed T cells were rested in complete RPMI 1640 media and supplemented with 10% FBS after depoting with Pam2CSK4 or Pam3CSK4 as described above. At selected time-points (0, 1, 2, 5, or 8 days post-depoting), T cells were washed and fixed with 4% paraformaldehyde (Sigma) for 15 min at 25°C. After washing 5 times with PBS + 1% BSA, at 1,000 × g for 5 min, T cells were cultured in complete RPMI 1640 media and supplemented with 10% FBS. Bystander B cells were added in co-cultures at a 1:1 B cell:T cell ratio. Naïve T cells without fixation were immediately cultured with bystander B cells. After 2 days of incubation at 37°C and 5% CO2, B-cell activation was measured by fluorescent staining for MHCII (clone M5/114.15.2; FITC) and CD69 (clone H1.2F3; PerCP/Cy5.5).

polyclonal T cells = experiment: Cytokine quantification in T-cell supernatants by ELISA; type: cell-based, mouse; conditions: supernatants day 2, ELISA, αCD3/CD28 bead-stimulated T cells, n = 5
Experimental: (§2) Naïve T cells were labeled with 5 μM of carboxyfluorescein succinimidyl ester (CFSE, ThermoFisher). Labeled cells were cultured in RPMI 1640 media and supplemented with 10% FBS as well as αCD3/CD28 coated Dynabeads^TM (Thermo) at a 1:5 bead to T cell ratio after depoting of lipid-CpG, Pam2CSK4, and/or Pam3CSK4 ligands. Non-depoted T cells were treated with soluble lipid-CpG (5 μM), Pam2CSK4 (10 μg/mL), and/or Pam3CSK4 (10 μg/mL). Cell proliferation was measured by CFSE dilution after 3 days, and cell activation was measured by fluorescent staining for CD25 (clone PC61; PE). Cell proliferation index and division index were calculated using FlowJo LLC software. Proliferation index is defined as the total number of cell divisions divided by the number of divided cells, whereas division index is the total number of cell divisions divided by the number of total original cells ([24]). Paracrine-enhanced proliferation of bystander T cells was measured as described above, with αCD3/CD28 beads added at a 2:5 bead to T-cell ratio.
T-cell activation was analyzed by collecting supernatants on day 2 post-activation for IL-2, IL-4, and IFNγ quantification by ELISA per manufacturer's instructions (BioLegend).

[2] = stated as much higher than the input concentration; cited from earlier work
Description: Thus, multiple lipid tails are a key design parameter for membrane delivery, and may be a simple way to enhance delivery of cargo to plasma membranes. One explanation of lipid-mediated insertion of TLR2 lipid-ligands, i.e., Pam2CSK4 and Pam3CSK4, into plasma membr ...

CD4+ and CD8+ T cells = experiment: T-cell activation assay (CFSE proliferation, αCD3/CD28 beads); type: cell-based, mouse; conditions: αCD3/CD28 beads 3 days, CFSE dilution
Experimental: as §2

[3] = tested on: depoted and bystander CD4+ and CD8+ T cells; experiment: Paracrine-enhanced proliferation: depoted T cells co-cultured with bystander T cells; type: cell-based, mouse; conditions: αCD3/CD28 beads 3 days, n = 5
Experimental: as §2

[4] = co-culture with depoted T cells
[5] = co-culture with non-depoted T cells

With Pam2CSK4 the “ng/mL (equivalent in solution)” value (purified mouse T cells) was 9.6 ng/mL, the “# Ligands/T cell” value (purified mouse T cells) was 1.3E+07 and the “fold increase in number of depoted molecules per T cell, 0.1 to 10 μg/mL depoting concentration” value (purified mouse T cells) was 130 fold. For the same substance, the “CD69 upregulation on B cells (fold MFI)” value [1] was 3.8 fold, the “MHC II upregulation on B cells (fold MFI)” value [1] was 19 fold and the “CD69 expression, depoted vs same dose of soluble ligand” value ([1]; 2 days co-culture) was 2.2 fold. The “MHC II expression, depoted vs same dose of soluble ligand” value ([1]; 2 days co-culture) was 5.3 fold, the “B-cell activation by dose-matched soluble ligand” value [1] was “none of the dose-matched soluble Pam2CSK4 and Pam3CSK4 activated B cells” and the “increase in IL-2 levels, depoted vs soluble ligand” value (polyclonal T cells) was 2.7 fold. The critical micelle concentration [2] was > 10 µg/mL.

In the case of Pam3CSK4, the “ng/mL (equivalent in solution)” value (purified mouse T cells) was 1.8 ng/mL, the “# Ligands/T cell” value (purified mouse T cells) was 2.0E+06 and the “fold increase in number of depoted molecules per T cell, 0.1 to 10 μg/mL depoting concentration” value (purified mouse T cells) was 2.2 fold. For the same substance, the “MHC II expression, depoted vs 10 μg/mL of soluble ligand” value ([1]; 2 days co-culture) was 1.5 fold, the “CD69 upregulation on B cells (fold MFI)” value [1] was 4.4 fold and the “MHC II upregulation on B cells (fold MFI)” value [1] was 21 fold. For the same substance, the “CD69 expression, depoted vs same dose of soluble ligand” value ([1]; 2 days co-culture) was 2.8 fold, the “MHC II expression, depoted vs same dose of soluble ligand” value ([1]; 2 days co-culture) was 6.1 fold and the “B-cell activation by dose-matched soluble ligand” value [1] was “none of the dose-matched soluble Pam2CSK4 and Pam3CSK4 activated B cells”. The “CD8+ T-cell proliferation index, effect of depoting” value (CD4+ and CD8+ T cells; Figure S5) was “did enhance”, the “CD4+ T-cell division index, depoted vs soluble ligand” value (CD4+ and CD8+ T cells; n = 3) was 1.9 fold and the “CD8+ T-cell division index, depoted vs soluble ligand” value (CD4+ and CD8+ T cells; n = 3) was 2.9 fold. For the same substance, the “bystander CD4+ T-cell division index vs soluble ligand” value [3, 4] was 1.3 fold, the “bystander CD8+ T-cell division index vs soluble ligand” value [3, 4] was 1.3 fold and the “CD4+ T-cell division index of depoted cells vs soluble ligand” value [3, 5] was 1.6 fold. The “CD8+ T-cell division index of depoted cells vs soluble ligand” value [3, 5] was 1.6 fold, the “increase in IL-2 levels, depoted vs soluble ligand” value (polyclonal T cells) was 3.4 fold and the critical micelle concentration [2] was > 10 µg/mL.
